Experimental data from patent US10450311B2, “Pesticidally active heterocyclic derivatives with sulphur containing substituents” (Syngenta Participations AG, priority 2014, dated 2019).

What was measured:
Format in all cases: in vivo
[1] = test system: Diabrotica balteata (Corn Root Worm); experiment: Activity against Diabrotica balteata, sprayed maize sprouts; conditions: 96 h, application rate of 200 ppm, larvae on maize sprouts, 4 days after infestation
Protocol: Example B2: Activity Against Diabrotica balteata (Corn Root Worm)
Maize sprouts, placed on an agar layer in 24-well microtiter plates were treated with aqueous test solutions prepared from 10′000 ppm DMSO stock solutions by spraying. After drying, the plates were infested with […] (6 to 10 per well). The samples were assessed for mortality 4 days after infestation.

[2] = test system: Bemisia tabaci (Cotton White Fly); experiment: Activity against Bemisia tabaci, sprayed cotton leaf discs; conditions: foliar, 144 h, application rate of 200 ppm, adult white flies on cotton leaf discs, 6 days after incubation
Protocol: Example B1: Activity Against Bemisia tabaci (Cotton White Fly)
Cotton leaf discs were placed on agar in 24-well microtiter plates and sprayed with aqueous test solutions prepared from 10′000 ppm DMSO stock solutions. After drying the leaf discs were infested with adult white flies. The samples were checked for mortality 6 days after incubation. […] A35, A36 and A47. A1. A2, A3, A8, A10, A14 and A12.

[3] = test system: Spodoptera littoralis (Egyptian Cotton Leaf Worm); experiment: Activity against Spodoptera littoralis, sprayed cotton leaf discs; conditions: foliar, 72 h, application rate of 200 ppm, L1 larvae on cotton leaf discs, 3 days after infestation, read-out: control (at least one of mortality, anti-feedant effect, growth inhibition)
Protocol: Example B9: Activity Against Spodoptera littoralis (Egyptian Cotton Leaf Worm)
Cotton leaf discs were placed on agar in 24-well microtiter plates and sprayed with aqueous test solutions prepared from 10′000 ppm DMSO stock solutions. After drying the leaf discs were infested with five L1 larvae. The samples were assessed for mortality, anti-feedant effect, and growth inhibition in comparison to untreated samples 3 days after infestation. Control of Spodoptera littoralis by a test sample is when at least one of mortality, anti-feedant effect, and growth inhibition is higher than the untreated sample.

[4] = test system: Plutella xylostella (Diamond Back Moth); experiment: Activity against Plutella xylostella, treated artificial diet; conditions: 120 h, application rate of 200 ppm, L2 larvae on artificial diet, 5 days after infestation, read-out: effect in at least one of the two categories (mortality or growth inhibition)
Protocol: Example B8: Activity Against Plutella xylostella (Diamond Back Moth)
24-well microtiter plates with artificial diet were treated with aqueous test solutions prepared from 10′000 ppm DMSO stock solutions by pipetting. After drying, the plates were infested with L2 larvae (10 to 15 per well). The samples were assessed for mortality and growth inhibition in comparison to untreated samples 5 days after infestation.

[5] = test system: Euschistus heros (Neotropical Brown Stink Bug); experiment: Activity against Euschistus heros, sprayed soybean leaf; conditions: 120 h, application rate of 200 ppm, N-2 nymphs on soybean leaf, 5 days after infestation
Protocol: Example B3: Activity Against Euschistus heros (Neotropical Brown Stink Bug)
Soybean leaf on agar in 24-well microtiter plates were sprayed with aqueous test solutions prepared from 10′000 ppm DMSO stock solutions. After drying the leaf were infested with N-2 nymphs. The samples were assessed for mortality 5 days after infestation.

[6] = test system: Myzus persicae (Green Peach Aphid); experiment: Activity against Myzus persicae, sprayed sunflower leaf discs; conditions: foliar, 144 h, application rate of 200 ppm, aphid population of mixed ages on sunflower leaf discs, 6 days after infestation
Protocol: Example B5: Activity Against Myzus persicae (Green Peach Aphid)
Sunflower leaf discs were placed on agar in a 24-well microtiter plate and sprayed with aqueous test solutions prepared from 10′000 ppm DMSO stock solutions. After drying, the leaf discs were infested with an aphid population of mixed ages. The samples were assessed for mortality 6 days after infestation.

[7] = test system: Spodoptera littoralis (Egyptian Cotton Leaf Worm); experiment: Activity against Spodoptera littoralis, systemic activity; conditions: 144 h, test rate of 12.5 ppm, in agar, lettuce root uptake, 6 days after infestation
Description: Example B11: Activity Against Spodoptera littoralis (Egyptian Cotton Leaf Worm), Systemic Activity
(§1) Test compounds were applied by pipette from 10′000 ppm DMSO stock solutions into 24-well plates and mixed with agar. Lettuce seeds were placed on the agar and the multi well plate was closed by another plate which contains also agar. After 7 days the roots have absorbed the compound and the lettuce has grown into the lid plate. The lettuce leafs were now cut off into the lid plate. Spodoptera eggs were pipetted through a plastic stencil on a humid gel blotting paper and the plate closed with it. The samples were assessed for mortality 6 days after infestation.

[8] = test system: Spodoptera littoralis (Egyptian Cotton Leaf Worm); experiment: Activity against Spodoptera littoralis, compound in agar taken up by lettuce; conditions: 144 h, test rate of 12.5 ppm, lettuce root uptake, 6 days after infestation, read-out: effect in at least one of the three categories (mortality, anti-feedancy, or growth inhibition)
Description: Example B10: Activity Against Spodoptera littoralis (Egyptian Cotton Leaf Worm)
as §1, with “mortality, anti-feedant effect and growth inhibition in comparison to untreated samples” for “mortality”

[9] = test system: Aedes aegypti (Yellow Fever Mosquito); experiment: whole plant or invertebrate; conditions: 48 h, test rate of 5 ppm, L2 larvae in 96-well plates, incubation period of 2 days, read-out: effect in at least one of the two categories (mortality or growth inhibition)
Protocol: Example B14: Activity Against Aedes aegypti (Yellow Fever Mosquito)
10 to 15 Aedes larvae (L2) together with a nutrition mixture were placed in 96-well microtiter plates. Test compounds were pipetted into the wells. After an incubation period of 2 days insects were assessed for mortality and growth inhibition.

C=CCn1c(C(F)(F)F)cc2nc(-c3ncc(C(F)(F)F)cc3S(=O)(=O)CC)n(C)c2c1=O [Compound A3, 5-allyl-2-[3-ethylsulfonyl-5-(trifluoromethyl)-2-pyridyl]-3-methyl-6-(trifluoromethyl)imidazo[4,5-c]pyridin-4-one]
≥ 80%: mortality at 200 ppm [1] | mortality at 200 ppm [2] | percent control (mortality, anti-feedant effect or growth inhibition) at 200 ppm [3] | percent effect (mortality or growth inhibition) at 200 ppm [4] | mortality at 200 ppm [5]

CCS(=O)(=O)c1cc(Br)cnc1-c1nc2cc(C(F)(F)F)n(C)c(=O)c2n1C [Compound A21, 2-[5-bromo-3-ethylsulfonyl-2-pyridyl]-3,5-dimethyl-6-(trifluoromethyl)imidazo[4,5-c]pyridin-4-one]
≥ 80%: mortality at 200 ppm [1] | mortality at 200 ppm [6] | percent control (mortality, anti-feedant effect or growth inhibition) at 200 ppm [3] | percent effect (mortality or growth inhibition) at 200 ppm [4] | mortality at 12.5 ppm [7] | mortality at 200 ppm [5] | percent control (mortality, anti-feedancy or growth inhibition) at 12.5 ppm [8]

CCS(=O)(=O)c1cc(-c2ccc(C(F)(F)F)cc2)cnc1-c1nc2cc(C(F)(F)F)n(C)c(=O)c2n1C [Compound A22, 2-[3-ethylsulfonyl-5-[4-(trifluoromethyl)phenyl]-2-pyridyl]-3,5-dimethyl-6-(trifluoromethyl)imidazo[4,5-c]pyridin-4-one]
≥ 80%: mortality at 200 ppm [1] | mortality at 200 ppm [6] | percent control (mortality, anti-feedant effect or growth inhibition) at 200 ppm [3] | percent effect (mortality or growth inhibition) at 200 ppm [4] | mortality at 12.5 ppm [7] | mortality at 200 ppm [5] | percent effect (mortality or growth inhibition) at 5 ppm [9] | percent control (mortality, anti-feedancy or growth inhibition) at 12.5 ppm [8]

CCSc1cc(-n2cc(C(F)(F)F)cn2)cnc1-c1nc2cc(C(F)(F)F)n(C)c(=O)c2n1C [Compound A24, 2-[3-ethylsulfanyl-5-[4-(trifluoromethyl)pyrazol-1-yl]-2-pyridyl]-3,5-dimethyl-6-(trifluoromethyl)imidazo[4,5-c]pyridin-4-one]
≥ 80%: percent control (mortality, anti-feedancy or growth inhibition) at 12.5 ppm [8]

CCSc1cc(-n2ccc(C(F)(F)F)n2)cnc1-c1nc2cc(C(F)(F)F)n(C)c(=O)c2n1C [Compound A26, 2-[3-ethylsulfanyl-5-[3-(trifluoromethyl)pyrazol-1-yl]-2-pyridyl]-3,5-dimethyl-6-(trifluoromethyl)imidazo[4,5-c]pyridin-4-one]
≥ 80%: percent control (mortality, anti-feedant effect or growth inhibition) at 200 ppm [3]

CCS(=O)(=O)c1cc(-n2ccc(C(F)(F)F)n2)cnc1-c1nc2cc(C(F)(F)F)n(C)c(=O)c2n1C [Compound A27]
≥ 80%: percent control (mortality, anti-feedant effect or growth inhibition) at 200 ppm [3]

CCS(=O)(=O)c1cc(-c2cc(F)cc(F)c2)cnc1-c1nc2cc(C(F)(F)F)n(C)c(=O)c2n1C [Compound A28, 2-[5-(3,5-difluorophenyl)-3-ethylsulfonyl-2-pyridyl]-3,5-dimethyl-6-(trifluoromethyl)imidazo[4,5-c]pyridin-4-one]
≥ 80%: mortality at 200 ppm [1] | percent control (mortality, anti-feedant effect or growth inhibition) at 200 ppm [3] | percent effect (mortality or growth inhibition) at 200 ppm [4] | mortality at 12.5 ppm [7] | mortality at 200 ppm [5] | percent effect (mortality or growth inhibition) at 5 ppm [9] | percent control (mortality, anti-feedancy or growth inhibition) at 12.5 ppm [8]

CCS(=O)(=O)c1cc(-c2ccc(C#N)cc2)cnc1-c1nc2cc(C(F)(F)F)n(C)c(=O)c2n1C [Compound A41, 4-[6-[3,5-dimethyl-4-OXO-6-(trifluoromethyl)imidazo[4,5-c]pyridin-2-yl]-5-ethylsulfonyl-3-pyridyl]benzonitrile]
≥ 80%: mortality at 200 ppm [1] | mortality at 200 ppm [6] | percent control (mortality, anti-feedant effect or growth inhibition) at 200 ppm [3] | percent effect (mortality or growth inhibition) at 200 ppm [4] | mortality at 12.5 ppm [7] | mortality at 200 ppm [5] | percent effect (mortality or growth inhibition) at 5 ppm [9] | percent control (mortality, anti-feedancy or growth inhibition) at 12.5 ppm [8]

CCS(=O)(=O)c1cc(-c2cc(C(F)(F)F)ccn2)cnc1-c1nc2cc(C(F)(F)F)n(C)c(=O)c2n1C [Compound A42]
≥ 80%: mortality at 200 ppm [1] | mortality at 200 ppm [6] | percent control (mortality, anti-feedant effect or growth inhibition) at 200 ppm [3] | percent effect (mortality or growth inhibition) at 200 ppm [4] | mortality at 12.5 ppm [7] | mortality at 200 ppm [5] | percent effect (mortality or growth inhibition) at 5 ppm [9] | percent control (mortality, anti-feedancy or growth inhibition) at 12.5 ppm [8]

CCS(=O)(=O)c1cc(-c2ccc(C(F)(F)F)cc2)ccc1-c1nc2cc(C(F)(F)F)n(C)c(=O)c2n1C [Compound A70, 2-[2-ethylsulfonyl-4-[4-(trifluoromethyl)phenyl]phenyl]-3,5-dimethyl-6-(trifluoromethyl)imidazo[4,5-c]pyridin-4-one]
≥ 80%: mortality at 200 ppm [1] | percent control (mortality, anti-feedant effect or growth inhibition) at 200 ppm [3] | percent effect (mortality or growth inhibition) at 200 ppm [4] | mortality at 200 ppm [5] | percent effect (mortality or growth inhibition) at 5 ppm [9]

CCS(=O)(=O)c1cc(-c2ncccn2)ccc1-c1nc2cc(C(F)(F)F)n(C)c(=O)c2n1C [Compound A71, 2-(2-ethylsulfonyl-4-pyrimidin-2-yl-phenyl)-3,5-dimethyl-6-(trifluoromethyl)imidazo[4,5-c]pyridin-4-one]
≥ 80%: mortality at 200 ppm [6] | percent control (mortality, anti-feedant effect or growth inhibition) at 200 ppm [3] | percent effect (mortality or growth inhibition) at 200 ppm [4] | mortality at 200 ppm [5]

CCS(=O)(=O)c1cc(-c2ccc(Cl)cc2)ccc1-c1nc2cc(C(F)(F)F)n(C)c(=O)c2n1C [Compound A72, 2-[4-(4-chlorophenyl)-2-ethylsulfonyl-phenyl]-3,5-dimethyl-6-(trifluoromethyl)imidazo[4,5-c]pyridin-4-one]
≥ 80%: mortality at 200 ppm [1] | percent control (mortality, anti-feedant effect or growth inhibition) at 200 ppm [3] | percent effect (mortality or growth inhibition) at 200 ppm [4] | mortality at 200 ppm [5]

CCS(=O)(=O)c1cc(-c2ccc(C(F)(F)F)cc2)cnc1-c1nc2cc(Br)c(=O)n(C)c2n1C [Compound B3]
≥ 80%: mortality at 200 ppm [1] | mortality at 200 ppm [6] | percent control (mortality, anti-feedant effect or growth inhibition) at 200 ppm [3] | percent effect (mortality or growth inhibition) at 200 ppm [4] | mortality at 200 ppm [5]

CCSc1cc(-c2ccc(C(F)(F)F)cc2)cnc1-c1nc2cc(C(F)(F)F)c(=O)n(C)c2n1C [Compound B5, 2-[3-ethylsulfanyl-5-[4-(trifluoromethyl)phenyl]-2-pyridyl]-3,4-dimethyl-6-(trifluoromethyl)imidazo[4,5-b]pyridin-5-one]
≥ 80%: mortality at 200 ppm [1] | percent control (mortality, anti-feedant effect or growth inhibition) at 200 ppm [3] | mortality at 200 ppm [5]
